Measurements from ChEMBL document CHEMBL1909046, “DrugMatrix in vitro pharmacology data”.

Key:
[1] = DRUGMATRIX: Sigma2 radioligand binding (ligand: [3H] Ifenprodil); format: cell membranes, Rattus norvegicus, Wistar, Brain, Membrane; details: Not Active = under 50% inhibition at 10 µM
[2] = DRUGMATRIX: Calcium Channel Type L, Phenylalkylamine radioligand binding (ligand: [3H] (-)-Desmethoxyverapamil (D-888)); format: cell membranes, Rattus norvegicus, Wistar, Brain, Membrane; details: Not Active = under 50% inhibition at 10 µM
[3] = target: T1, C-X-C chemokine receptor type 2 (Homo sapiens, UniProt P25025); format: cell membranes, Membrane; details: cho-k1; note: in other assays of this panel Not Active means under 50% inhibition at 10 µM
T1 sequence (P25025 whole entry): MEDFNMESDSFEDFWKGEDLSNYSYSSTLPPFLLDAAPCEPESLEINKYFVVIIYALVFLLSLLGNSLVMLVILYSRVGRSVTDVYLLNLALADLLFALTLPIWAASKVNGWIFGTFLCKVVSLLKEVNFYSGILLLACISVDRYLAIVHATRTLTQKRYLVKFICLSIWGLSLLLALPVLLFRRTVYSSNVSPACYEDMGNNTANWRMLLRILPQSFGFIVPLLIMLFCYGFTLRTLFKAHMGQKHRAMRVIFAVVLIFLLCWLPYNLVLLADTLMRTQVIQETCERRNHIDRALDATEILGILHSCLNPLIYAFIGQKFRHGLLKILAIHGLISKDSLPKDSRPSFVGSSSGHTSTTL

[4] = target: T2, Neuropeptide Y receptor type 2 (Homo sapiens, UniProt P49146); format: cell membranes, Membrane; details: kan-ts; note: in other assays of this panel Not Active means under 50% inhibition at 10 µM
T2 sequence (P49146 whole entry): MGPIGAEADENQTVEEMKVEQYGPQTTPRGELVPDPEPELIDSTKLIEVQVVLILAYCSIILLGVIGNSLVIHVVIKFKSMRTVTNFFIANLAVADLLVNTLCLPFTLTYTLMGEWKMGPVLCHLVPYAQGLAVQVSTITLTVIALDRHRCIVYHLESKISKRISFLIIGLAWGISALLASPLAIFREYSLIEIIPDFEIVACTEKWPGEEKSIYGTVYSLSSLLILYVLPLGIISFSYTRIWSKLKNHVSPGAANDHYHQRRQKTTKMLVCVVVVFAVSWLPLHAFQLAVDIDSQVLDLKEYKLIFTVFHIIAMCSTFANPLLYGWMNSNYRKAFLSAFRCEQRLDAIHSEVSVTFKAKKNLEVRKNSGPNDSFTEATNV

Progesterone receptor = target: T3, Progesterone receptor (Bos taurus, UniProt Q690N0); assay: DRUGMATRIX: Progesterone radioligand binding (ligand: [3H] R-5020); format: tissue-based, Uterus; details: Not Active = under 50% inhibition at 10 µM
T3 sequence (Q690N0 whole entry): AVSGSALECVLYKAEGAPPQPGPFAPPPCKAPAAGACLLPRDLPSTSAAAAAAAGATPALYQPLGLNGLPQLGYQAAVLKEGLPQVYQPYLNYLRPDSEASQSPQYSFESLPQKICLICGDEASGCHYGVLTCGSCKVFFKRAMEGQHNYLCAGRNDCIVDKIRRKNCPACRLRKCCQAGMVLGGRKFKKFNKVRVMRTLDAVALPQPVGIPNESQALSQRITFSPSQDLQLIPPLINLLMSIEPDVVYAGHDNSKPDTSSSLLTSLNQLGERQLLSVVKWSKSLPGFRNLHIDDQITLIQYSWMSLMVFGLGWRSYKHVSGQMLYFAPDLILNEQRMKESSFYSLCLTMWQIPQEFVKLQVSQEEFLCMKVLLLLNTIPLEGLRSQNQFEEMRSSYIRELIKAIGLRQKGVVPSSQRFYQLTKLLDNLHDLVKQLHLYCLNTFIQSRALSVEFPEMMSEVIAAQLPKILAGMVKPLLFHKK

Cytochrome P450 2C19 = Cytochrome P450 2C19 (Homo sapiens, UniProt P33261); details: bti-tn-5b1-4; note: in other assays of this panel Not Active means under 50% inhibition at 10 µM
Chain of Cytochrome P450 2C19 (P33261 whole entry): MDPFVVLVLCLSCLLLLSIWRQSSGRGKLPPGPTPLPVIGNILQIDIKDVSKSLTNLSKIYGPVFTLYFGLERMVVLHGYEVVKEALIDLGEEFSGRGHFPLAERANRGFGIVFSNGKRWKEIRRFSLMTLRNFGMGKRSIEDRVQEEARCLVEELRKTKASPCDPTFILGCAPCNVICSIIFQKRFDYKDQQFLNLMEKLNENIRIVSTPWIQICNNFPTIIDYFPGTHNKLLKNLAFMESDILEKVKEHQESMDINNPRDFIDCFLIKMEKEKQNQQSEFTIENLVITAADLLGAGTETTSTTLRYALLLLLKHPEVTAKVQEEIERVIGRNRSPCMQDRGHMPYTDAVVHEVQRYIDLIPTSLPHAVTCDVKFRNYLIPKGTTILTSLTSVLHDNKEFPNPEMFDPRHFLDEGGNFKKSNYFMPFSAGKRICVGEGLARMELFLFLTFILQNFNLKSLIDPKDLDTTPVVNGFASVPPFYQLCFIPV

[5] = target: Voltage-gated inwardly rectifying potassium channel KCNH2 (Homo sapiens, UniProt Q12809); details: hek293; note: in other assays of this panel Not Active means under 50% inhibition at 10 µM
Chain of Voltage-gated inwardly rectifying potassium channel KCNH2 (Q12809 whole entry): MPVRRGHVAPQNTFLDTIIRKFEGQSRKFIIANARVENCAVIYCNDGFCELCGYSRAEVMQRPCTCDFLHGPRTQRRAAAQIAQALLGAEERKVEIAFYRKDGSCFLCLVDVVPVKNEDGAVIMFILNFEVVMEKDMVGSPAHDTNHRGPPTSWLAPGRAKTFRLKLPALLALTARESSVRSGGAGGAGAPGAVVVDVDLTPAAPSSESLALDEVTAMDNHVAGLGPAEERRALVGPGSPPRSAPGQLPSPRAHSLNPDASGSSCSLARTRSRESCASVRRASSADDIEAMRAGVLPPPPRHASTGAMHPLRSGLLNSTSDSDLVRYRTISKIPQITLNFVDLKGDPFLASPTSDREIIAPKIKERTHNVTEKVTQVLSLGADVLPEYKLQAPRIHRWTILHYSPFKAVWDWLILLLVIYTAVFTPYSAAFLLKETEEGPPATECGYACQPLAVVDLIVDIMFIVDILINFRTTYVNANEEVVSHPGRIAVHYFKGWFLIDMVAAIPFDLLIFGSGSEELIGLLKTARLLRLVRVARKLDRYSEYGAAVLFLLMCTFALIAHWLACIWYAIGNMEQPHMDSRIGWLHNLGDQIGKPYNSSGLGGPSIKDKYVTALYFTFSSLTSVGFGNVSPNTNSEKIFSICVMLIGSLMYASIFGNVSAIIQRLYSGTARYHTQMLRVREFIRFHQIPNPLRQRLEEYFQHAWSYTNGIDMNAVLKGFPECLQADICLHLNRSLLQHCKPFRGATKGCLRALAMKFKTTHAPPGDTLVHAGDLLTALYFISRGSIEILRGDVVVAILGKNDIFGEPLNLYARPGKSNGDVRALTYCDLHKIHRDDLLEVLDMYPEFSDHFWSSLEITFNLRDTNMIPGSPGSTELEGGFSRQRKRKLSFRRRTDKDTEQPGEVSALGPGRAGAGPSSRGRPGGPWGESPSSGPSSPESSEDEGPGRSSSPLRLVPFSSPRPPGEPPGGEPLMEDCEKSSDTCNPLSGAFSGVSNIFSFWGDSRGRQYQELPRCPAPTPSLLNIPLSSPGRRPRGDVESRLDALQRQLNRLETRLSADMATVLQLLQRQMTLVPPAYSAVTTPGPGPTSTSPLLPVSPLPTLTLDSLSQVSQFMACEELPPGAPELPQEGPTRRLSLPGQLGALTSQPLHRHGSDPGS

Structure (SMILES) | IC50 [1] | Ki [1] | IC50 [2] | Ki [2] | IC50 [3] | IC50 [4] | IC50 (Progesterone receptor) | IC50 (Cytochrome P450 2C19) | Ki (Cytochrome P450 2C19) | IC50 [5] | Ki [5] | IC50 ([2]; read-out: IC50) [µM] | Ki ([2]; read-out: Ki) [µM]
ClC(Cl)(Cl)Cl [CARBON TETRACHLORIDE] | Not Active | Not Active | Not Active | Not Active | Not Active | Not Active | Not Active | Not Active | Not Active | Not Active | Not Active |  | 
CO/N=C(\C(=O)N[C@@H]1C(=O)N2C(C(=O)O)=C(COC(C)=O)CS[C@H]12)c1csc(N)n1 [CEFOTAXIME] | Not Active | Not Active | Not Active | Not Active | Not Active | Not Active | Not Active | Not Active | Not Active | Not Active | Not Active |  | 
CNC1=Nc2ccc(Cl)cc2C(c2ccccc2)=[N+]([O-])C1 [CHLORDIAZEPOXIDE] | Not Active | Not Active | Not Active | Not Active | Not Active | Not Active | Not Active | Not Active | Not Active | Not Active | Not Active |  | 
Cc1cc(O)cc(C)c1Cl [CHLOROXYLENOL] | Not Active | Not Active | Not Active | Not Active | Not Active | Not Active | Not Active | Not Active | Not Active | Not Active | Not Active |  | 
CCCNC(=O)NS(=O)(=O)c1ccc(Cl)cc1 [CHLORPROPAMIDE] | Not Active | Not Active | Not Active | Not Active | Not Active | Not Active | Not Active | Not Active | Not Active | Not Active | Not Active |  | 
NS(=O)(=O)c1cc(C2(O)NC(=O)c3ccccc32)ccc1Cl (stereo not given) [CHLORTHALIDONE] | Not Active | Not Active | Not Active | Not Active | Not Active | Not Active | Not Active | Not Active | Not Active | Not Active | Not Active |  | 
O=C(O)CC(O)(CC(=O)O)C(=O)O [CITRIC ACID] | Not Active | Not Active | Not Active | Not Active | Not Active | Not Active | Not Active | Not Active | Not Active | Not Active | Not Active |  | 
CC(C)NCC(O)c1ccccc1Cl (stereo not given) [CLORPRENALINE] | Not Active | Not Active | Not Active | Not Active | Not Active | Not Active | Not Active | Not Active | Not Active | Not Active | Not Active |  | 
CN1CCN(C(c2ccccc2)c2ccccc2)CC1 [CYCLIZINE] | Not Active | Not Active |  |  | Not Active | Not Active | Not Active | Not Active | Not Active | Not Active | Not Active | 4.64 | 4.51
CN1C[C@@H]2C[C@H]1CN2c1cc2c(cc1F)c(=O)c(C(=O)O)cn2C1CC1 [DANOFLOXACIN] | Not Active | Not Active | Not Active | Not Active | Not Active | Not Active | Not Active | Not Active | Not Active | Not Active | Not Active |  | 
